The values below come from PubChem BioAssay AID686916 (Sanford-Burnham Center for Chemical Genomics, 2013).

This assay addresses COP9 signalosome complex subunit 5 (Homo sapiens) (UniProt Q92905). Put plainly: Csn5 deneddylation inhibitors, retested RPN11 hits, SAR follow-up, selectivity assay for RPN11 inhibitor project, biochemical, fluorescence polarization, SCF-Nedd8-OG substrate, set 2 (AID 686916). Conditions: Csn5 deneddylation of SCF-Nedd8-OG. (Polarisation of emitted light reports the rotation of a fluorescent probe.)

What is called IC50 is the midpoint of a concentration-inhibition curve.

“And” between values parts separate entries of the source, which are not always exact repeats. Identical values can stand only once. The source made the active and inactive calls.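 The calls were made as follows: active = concentration halving Nedd8 removal by the CSN enzyme IC50 of 60 µM or lower; inactive = the rest.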

COP9 signalosome complex subunit 5 (Homo sapiens), sequence (Q92905 whole entry, looked up, one chain of several): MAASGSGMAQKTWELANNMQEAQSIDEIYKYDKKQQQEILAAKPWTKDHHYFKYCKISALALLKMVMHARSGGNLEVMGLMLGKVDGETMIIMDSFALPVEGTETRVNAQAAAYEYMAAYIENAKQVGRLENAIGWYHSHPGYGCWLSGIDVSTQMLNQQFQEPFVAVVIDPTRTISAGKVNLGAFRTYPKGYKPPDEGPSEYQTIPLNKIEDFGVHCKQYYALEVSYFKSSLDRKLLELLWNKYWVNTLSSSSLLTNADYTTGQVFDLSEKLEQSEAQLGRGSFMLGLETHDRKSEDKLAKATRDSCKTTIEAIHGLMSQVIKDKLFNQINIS

As to `CC[C@@H](C)[C@H](NC(=O)c1cnc2c(SSc3cccc4cc(C(=O)N[C@H](C(=O)OC)[C@@H](C)CC)cnc34)cccc2c1)C(=O)OC`, the IC50 was 4.73 µM. As for `O=C(Sc1cccc2cccnc12)c1ccccc1`, the IC50 is 11.2 µM. The result for `COc1ccc(C(=O)Sc2cccc3cccnc23)cc1` reads 13.7 µM; that for `O=C(Sc1cccc2cccnc12)c1ccccc1Br`, 7.91 µM. As to `O=C(O)[C@@H]1CCCN1C(=O)c1cnc2c(SSc3cccc4cc(C(=O)N5CCC[C@H]5C(=O)O)cnc34)cccc2c1`, the IC50 was 6.36 µM. With `O=C(Sc1cccc2cccnc12)c1c(Cl)cccc1Cl`, the IC50 was 17.4 µM. The result for `O=C(Sc1cccc2cccnc12)c1ccc(F)c(F)c1` reads 4.92 µM. The result for `COC(=O)C[C@H](NC(=O)c1cnc2c(SSc3cccc4cc(C(=O)N[C@@H](CC(=O)OC)C(=O)OC)cnc34)cccc2c1)C(=O)OC` reads 13 µM; that for `COc1ccc(C(=O)Sc2cccc3cccnc23)cc1OC`, 14.3 µM; that for `COC(=O)[C@H](CO)NC(=O)c1cnc2c(SSc3cccc4cc(C(=O)N[C@@H](CO)C(=O)OC)cnc34)cccc2c1`, 36.2 µM. In the case of `O=C(Sc1cccc2cccnc12)c1cccc2ccccc12`, the IC50 was 14.3 µM. As to `COc1ccc(C(=O)Sc2cccc3cccnc23)cc1F`, the IC50 is 5 µM. On to `O=C(Sc1cccc2cccnc12)c1ccccc1[N+](=O)[O-]`, for which the concentration for half-maximal inhibition (IC50) was 9.08 µM. In the case of `COc1cccc(C(=O)Sc2cccc3cccnc23)c1`, the half-inhibitory concentration (IC50) is 5.57 µM. `CC(C)[C@H](NC(=O)c1cnc2c(SSc3cccc4cc(C(=O)N[C@H](C(=O)O)C(C)C)cnc34)cccc2c1)C(=O)O`: the IC50 was 8.35 µM.

Take `O=C(Sc1cccc2cccnc12)c1ccc(F)cc1F`: the IC50 was 24.6 µM. On to `O=C(Sc1cccc2cccnc12)c1cccc(Cl)c1`, for which the IC50 is 2.63 µM. As for `CC(C)(C)OC(=O)CCNC(=O)c1cnc2c(SSc3cccc4cc(C(=O)NCCC(=O)OC(C)(C)C)cnc34)cccc2c1`, the IC50 was 26.4 µM. With `O=C(Sc1cccc2cccnc12)c1ccccc1I`, the IC50 was 19.4 µM.

`COC(=O)[C@H](C)N(C)C(=O)c1cnc2c(SSc3cccc4cc(C(=O)N(C)[C@@H](C)C(=O)OC)cnc34)cccc2c1`: the IC50 was 12.8 µM. `COC(=O)[C@H](CC(C)C)NC(=O)c1cnc2c(SSc3cccc4cc(C(=O)N[C@@H](CC(C)C)C(=O)OC)cnc34)cccc2c1`: the IC50 is 13.9 µM.

Turning to `CCOc1ccccc1C(=O)Sc1cccc2cccnc12`, the IC50 was 11.7 µM and 31.8 µM.

On to `O=C(Sc1cccc2cccnc12)c1ccc2c(c1)OCO2`, for which the IC50 is 40.1 µM. As to `O=C(Sc1cccc2cccnc12)C1CCCCC1`, the IC50 was 4.07 µM. Turning to `O=C(Sc1cccc2cccnc12)c1ccc([N+](=O)[O-])cc1`, the IC50 is 13 µM.

Consider `CC(C)C[C@H](NC(=O)c1cnc2c(SSc3cccc4cc(C(=O)N[C@@H](CC(C)C)C(=O)O)cnc34)cccc2c1)C(=O)O`, for which the IC50 is 11.8 µM. For `O=C(Sc1cccc2cccnc12)c1cccc(C(F)(F)F)c1`, the IC50 is > 95 µM (inactive). For the molecule `N#Cc1cccc(C(=O)Sc2cccc3cccnc23)c1`, the IC50 was 33.3 µM.

Take `C[C@@H](C(=O)O)N(C)C(=O)c1cnc2c(SSc3cccc4cc(C(=O)N(C)[C@@H](C)C(=O)O)cnc34)cccc2c1`: the IC50 was 13 µM. On to `Cc1cccc(C(=O)Sc2cccc3cccnc23)c1`, for which the concentration for half-maximal inhibition (IC50) is 12.3 µM. With `COC(=O)[C@H](C)NC(=O)c1cnc2c(SSc3cccc4cc(C(=O)N[C@@H](C)C(=O)OC)cnc34)cccc2c1`, the IC50 is 20.3 µM.

`COC(=O)[C@@H]1CCCN1C(=O)c1cnc2c(SSc3cccc4cc(C(=O)N5CCC[C@H]5C(=O)OC)cnc34)cccc2c1`: the IC50 is 17.6 µM. The result for `O=C(Sc1cccc2cccnc12)c1ccccc1Cl` reads 19.9 µM; that for `CC(C)Cc1ccc(C(=O)Sc2cccc3cccnc23)cc1`, 15.6 µM; that for `CCCc1ccc(C(=O)Sc2cccc3cccnc23)cc1`, 10.4 µM. As to `O=C(O)c1cnc2c(SSc3cccc4cc(C(=O)O)cnc34)cccc2c1`, the IC50 is 4.28 µM. Under `O=C(Sc1cccc2cccnc12)c1ccc(F)cc1` stands 3.12 µM; under `Cc1ccc(C(=O)Sc2cccc3cccnc23)cc1`, > 95 µM (inactive). As to `O=C(Sc1cccc2cccnc12)c1ccccc1F`, the IC50 was > 95 µM (inactive).

As to `COc1ccccc1C(=O)Sc1cccc2cccnc12`, the IC50 is 20.7 µM and 5.61 µM.

For the molecule `O=C(Sc1cccc2cccnc12)c1ccccc1OC(F)(F)F`, the IC50 was 17.8 µM.

Turning to `N#Cc1ccc(C(=O)Sc2cccc3cccnc23)cc1`, the IC50 was > 95 µM (inactive). The result for `Cc1ccccc1C(=O)Sc1cccc2cccnc12` reads 18.2 µM; that for `COC(=O)[C@H](C)NC(=O)c1ccnc2c(SSc3cccc4c(C(=O)N[C@@H](C)C(=O)OC)ccnc34)cccc12`, 22.2 µM; that for `CC[C@@H](C)[C@H](NC(=O)c1cnc2c(SSc3cccc4cc(C(=O)N[C@H](C(=O)O)[C@H](C)CC)cnc34)cccc2c1)C(=O)O`, 8.57 µM. Consider `COC(=O)c1cnc2c(SSc3cccc4cc(C(=O)OC)cnc34)cccc2c1`, for which the IC50 is 20 µM. The result for `COC(=O)[C@@H](NC(=O)c1cnc2c(SSc3cccc4cc(C(=O)N[C@H](C(=O)OC)C(C)C)cnc34)cccc2c1)C(C)C` reads 11.8 µM. On to `O=C(Sc1cccc2cccnc12)c1ccc(C(F)(F)F)cc1`, for which the half-inhibitory concentration (IC50) was 5.25 µM.
